Data taken from patent US20240182910A1, “DRUG-REGULATABLE TRANSCRIPTION FACTORS” (Senti Biosciences, Inc., priority 2021, published 2024).

Key:
tTAPIT3E-KRAB = system: tTAPIT3E-KRAB; design: key to Response to inducer: T (transgene transcription): A, activation; DA, deactivation; DR, derepression; key to Response to inducer: TF (transcription factor): B, binding; D, dissociation; details: TET-OFFPIP-ONE-ON; OtetO7-OPIR3-OETR8-PhCMVmin; cited from earlier work
SCAE-KRAB = system: SCAE-KRAB; design: key to Response to inducer: T (transgene transcription): A, activation; DA, deactivation; DR, derepression; key to Response to inducer: TF (transcription factor): B, binding; D, dissociation; details: QuoRexE-ON (NOT IF gate); OscbR-OETR8-PhCMVmin; cited from earlier work
tTAE-KRAB = system: tTAE-KRAB; design: key to Response to inducer: T (transgene transcription): A, activation; DA, deactivation; DR, derepression; key to Response to inducer: TF (transcription factor): B, binding; D, dissociation; details: TET-OFFE-ON (NOT IF gate); OtetO7-OETR8-PhCMVmin; cited from earlier work
E-KRAB = system: E-KRAB; design: key to Response to inducer: T (transgene transcription): A, activation; DA, deactivation; DR, derepression; key to Response to inducer: TF (transcription factor): B, binding; D, dissociation; details: E-ON; PETRON8 (PSV40-OETR8); cited from earlier work
ET (E-VP16) = system: ET (E-VP16); design: key to Response to inducer: T (transgene transcription): A, activation; DA, deactivation; DR, derepression; key to Response to inducer: TF (transcription factor): B, binding; D, dissociation; details: E-OFF; PETR (OETR-PhCMVmin); cited from earlier work
NT (HdnoR-VP16) = NT (HdnoR-VP16) (Paenarthrobacter nicotinovorans, UniProt Q8GAF9); design: key to Response to inducer: T (transgene transcription): A, activation; DA, deactivation; DR, derepression; key to Response to inducer: TF (transcription factor): B, binding; D, dissociation; details: NICE-OFF; PNIC (ONIC-PhCMVmin); cited from earlier work
NS (HdnoR-KRAB) = system: NS (HdnoR-KRAB); design: key to Response to inducer: T (transgene transcription): A, activation; DA, deactivation; DR, derepression; key to Response to inducer: TF (transcription factor): B, binding; D, dissociation; details: NICE-ON; PNIC (PSV40-ONIC8); cited from earlier work
TtgA1 (TtgR-VP16) = TtgA1 (TtgR-VP16) (Pseudomonas putida, UniProt Q9AIU0); design: key to Response to inducer: T (transgene transcription): A, activation; DA, deactivation; DR, derepression; key to Response to inducer: TF (transcription factor): B, binding; D, dissociation; details: PEACE; PTtgR1 (OTtgR-PhCMVmin); cited from earlier work
BIT (BirA-VP16) = BIT (BirA-VP16) (Escherichia coli, UniProt P06709); design: key to Response to inducer: T (transgene transcription): A, activation; DA, deactivation; DR, derepression; key to Response to inducer: TF (transcription factor): B, binding; D, dissociation; details: PBIT3 (OBirA3-PhCMVmin); cited from earlier work
[1] = system: nicotine-inducible transcription factor; details: U87MG reporter cells co-transduced with constructs 12 and 13 (cell group G); nicotine 10 uM and 1 uM; flow cytometry day 5; FIG. 2 and FIG. 3
Procedure: U87MG cells transduced with a 4×ZF10-1 BS_minYBTATA:mCherry vector (referred to as “reporter cells”) were plated at 6e5/cells in a 6 well plate on day 0.
Cannabinoid-inducible transcription factor constructs included a first monomer construct (construct 14) composed of a first anti-CBD VHH (CA-14), a zinc finger protein domain of SEQ ID NO: 1, a nuclear localization signal of SEQ ID NO: 2, a cleavable linker, and a BFP tag, and a second monomer construct (construct 15) composed of a 3×FLAG-tagged nuclear localization signal (NLS) of SEQ ID NO: 2, a VPR transcriptional activation domain, a second anti-CBD VHH that is oligomerizable with the first anti-CBD VHH (DB-21), a cleavable linker, and a GFP tag.
Day 5, flow cytometry was performed, and the cells were gate on GFP/BFP

rcTA (rCymR-VP16) = system: rcTA (rCymR-VP16); design: key to Response to inducer: T (transgene transcription): A, activation; DA, deactivation; DR, derepression; key to Response to inducer: TF (transcription factor): B, binding; D, dissociation; details: Cumate - reverse activator; PCR5 (OCuO6-PhCMVmin); cited from earlier work
cTA (CymR-VP16) = system: cTA (CymR-VP16); design: key to Response to inducer: T (transgene transcription): A, activation; DA, deactivation; DR, derepression; key to Response to inducer: TF (transcription factor): B, binding; D, dissociation; details: Cumate - activator; PCR5 (OCuO6-PhCMVmin); cited from earlier work
CymR = CymR (Pseudomonas putida, UniProt O33453); design: key to Response to inducer: T (transgene transcription): A, activation; DA, deactivation; DR, derepression; key to Response to inducer: TF (transcription factor): B, binding; D, dissociation; details: Cumate - repressor; PCuO (PCMV5-OCuO); cited from earlier work
VanA4 (VanR-KRAB) = system: VanA4 (VanR-KRAB); design: key to Response to inducer: T (transgene transcription): A, activation; DA, deactivation; DR, derepression; key to Response to inducer: TF (transcription factor): B, binding; D, dissociation; details: VAC-ON; PVanON8 (PhCMV-OVanO8); cited from earlier work
VanA1 (VanR-VP16) = system: VanA1 (VanR-VP16); design: key to Response to inducer: T (transgene transcription): A, activation; DA, deactivation; DR, derepression; key to Response to inducer: TF (transcription factor): B, binding; D, dissociation; details: VAC-OFF; P1VanO2 (OVanO2-PhCMVmin); cited from earlier work
mUTS (KRAB-HucR) = system: mUTS (KRAB-HucR); design: key to Response to inducer: T (transgene transcription): A, activation; DA, deactivation; DR, derepression; key to Response to inducer: TF (transcription factor): B, binding; D, dissociation; details: UREX; PUREX8 (PSV40-OhucO8); cited from earlier work
SCS (ScbR-KRAB) = system: SCS (ScbR-KRAB); design: key to Response to inducer: T (transgene transcription): A, activation; DA, deactivation; DR, derepression; key to Response to inducer: TF (transcription factor): B, binding; D, dissociation; details: Q-ON; PSCAON8 (PSV40-OscbR8); cited from earlier work
SCAPIT3 = system: SCAPIT3; design: key to Response to inducer: T (transgene transcription): A, activation; DA, deactivation; DR, derepression; key to Response to inducer: TF (transcription factor): B, binding; D, dissociation; details: QuoRexPIP-ON (NOT IF gate); OscbR8-OPIR3-PhCMVmin; cited from earlier work
SCA (ScbR-VP16) = system: SCA (ScbR-VP16); design: key to Response to inducer: T (transgene transcription): A, activation; DA, deactivation; DR, derepression; key to Response to inducer: TF (transcription factor): B, binding; D, dissociation; details: QuoRex; PSCA (OscbR-PhCMVmin)PSPA (OpapRI-PhCMVmin); cited from earlier work
PIT (PIP-VP16) = system: PIT (PIP-VP16); design: key to Response to inducer: T (transgene transcription): A, activation; DA, deactivation; DR, derepression; key to Response to inducer: TF (transcription factor): B, binding; D, dissociation; details: PIP-OFF; PPIR (OPIR-Phsp70 min); cited from earlier work
PIT3 (PIP-KRAB) = system: PIT3 (PIP-KRAB); design: key to Response to inducer: T (transgene transcription): A, activation; DA, deactivation; DR, derepression; key to Response to inducer: TF (transcription factor): B, binding; D, dissociation; details: PIP-ON; PPIRON (PSV40-OPIR3); cited from earlier work
ArgR-VP16 = system: ArgR-VP16; design: key to Response to inducer: T (transgene transcription): A, activation; DA, deactivation; DR, derepression; key to Response to inducer: TF (transcription factor): B, binding; D, dissociation; details: ART; PART (OARG-PhCMVmin); cited from earlier work
REDOX (REX-VP16) = REDOX (REX-VP16) (Streptomyces coelicolor, UniProt Q9WX14); design: key to Response to inducer: T (transgene transcription): A, activation; DA, deactivation; DR, derepression; key to Response to inducer: TF (transcription factor): B, binding; D, dissociation; details: PROP (OROP-PhCMVmin); cited from earlier work
p65-TraR = system: p65-TraR; design: key to Response to inducer: T (transgene transcription): A, activation; DA, deactivation; DR, derepression; key to Response to inducer: TF (transcription factor): B, binding; D, dissociation; details: O7x(tra box)-PhCMVmin; cited from earlier work

Sequence of TtgA1 (TtgR-VP16) (Q9AIU0 whole entry, added parts left off): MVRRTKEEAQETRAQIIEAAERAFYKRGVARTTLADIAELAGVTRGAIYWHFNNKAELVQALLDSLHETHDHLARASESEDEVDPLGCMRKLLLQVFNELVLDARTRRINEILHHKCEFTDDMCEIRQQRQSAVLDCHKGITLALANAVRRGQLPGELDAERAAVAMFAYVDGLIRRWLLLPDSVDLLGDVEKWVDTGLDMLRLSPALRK
Sequence of REDOX (REX-VP16) (Q9WX14 whole entry, added parts left off): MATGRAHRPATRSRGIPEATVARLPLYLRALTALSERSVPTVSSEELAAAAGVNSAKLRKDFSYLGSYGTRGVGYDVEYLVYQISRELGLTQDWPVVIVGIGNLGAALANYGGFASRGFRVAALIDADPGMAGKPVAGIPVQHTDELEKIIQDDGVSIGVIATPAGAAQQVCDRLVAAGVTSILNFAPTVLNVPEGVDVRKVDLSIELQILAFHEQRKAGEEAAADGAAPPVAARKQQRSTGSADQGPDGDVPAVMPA
Sequence of NT (HdnoR-VP16) (Q8GAF9 whole entry, added parts left off): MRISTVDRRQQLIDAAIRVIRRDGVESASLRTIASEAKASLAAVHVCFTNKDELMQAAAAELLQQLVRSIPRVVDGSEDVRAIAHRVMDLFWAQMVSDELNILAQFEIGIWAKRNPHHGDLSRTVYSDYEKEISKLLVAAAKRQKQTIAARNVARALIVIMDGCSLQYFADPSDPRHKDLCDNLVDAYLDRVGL
Sequence of BIT (BirA-VP16) (P06709 whole entry, added parts left off): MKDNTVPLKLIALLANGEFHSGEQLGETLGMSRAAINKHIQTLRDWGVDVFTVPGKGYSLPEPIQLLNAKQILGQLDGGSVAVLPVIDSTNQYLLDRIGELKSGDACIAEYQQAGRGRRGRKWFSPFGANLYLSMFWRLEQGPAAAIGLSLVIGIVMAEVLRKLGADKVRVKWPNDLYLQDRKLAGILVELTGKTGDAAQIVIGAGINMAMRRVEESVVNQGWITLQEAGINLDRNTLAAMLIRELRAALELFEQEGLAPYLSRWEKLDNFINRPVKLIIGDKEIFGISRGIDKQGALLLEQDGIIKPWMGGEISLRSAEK
Sequence of CymR (O33453 whole entry): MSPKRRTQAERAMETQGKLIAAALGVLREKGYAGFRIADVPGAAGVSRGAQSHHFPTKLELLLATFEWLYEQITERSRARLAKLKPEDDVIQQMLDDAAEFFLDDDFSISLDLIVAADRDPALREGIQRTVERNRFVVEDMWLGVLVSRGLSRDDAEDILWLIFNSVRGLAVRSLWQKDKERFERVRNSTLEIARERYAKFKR

Compound: CC[C@H]1OC(=O)[C@H](C)[C@@H](O[C@H]2C[C@@](C)(OC)[C@@H](O)[C@H](C)O2)[C@H](C)[C@@H](O[C@@H]2O[C@H](C)C[C@H](N(C)C)[C@H]2O)[C@](C)(O)C[C@@H](C)C(=O)[C@H](C)[C@@H](O)[C@]1(C)O [Erythromycin]
- Response to inducer: T (transgene transcription) (tTAPIT3E-KRAB): DR
- Response to inducer: TF (transcription factor) (tTAPIT3E-KRAB): D
- Response to inducer: T (transgene transcription) (SCAE-KRAB): DR
- Response to inducer: TF (transcription factor) (SCAE-KRAB): D
- Response to inducer: T (transgene transcription) (tTAE-KRAB): DR
- Response to inducer: TF (transcription factor) (tTAE-KRAB): D
- Response to inducer: T (transgene transcription) (E-KRAB): DR
- Response to inducer: TF (transcription factor) (E-KRAB): D
- Response to inducer: T (transgene transcription) (ET (E-VP16)): DA
- Response to inducer: TF (transcription factor) (ET (E-VP16)): D

Compound: CN1CCCC1c1ccc(O)nc1 (centres unmarked) [6-Hydroxy-nicotine]
- Response to inducer: T (transgene transcription) (NT (HdnoR-VP16)): DA
- Response to inducer: TF (transcription factor) (NT (HdnoR-VP16)): D
- Response to inducer: T (transgene transcription) (NS (HdnoR-KRAB)): DR
- Response to inducer: TF (transcription factor) (NS (HdnoR-KRAB)): D

Compound: O=C(CCc1ccc(O)cc1)c1c(O)cc(O)cc1O [Phloretin]
- Response to inducer: T (transgene transcription) (TtgA1 (TtgR-VP16)): DA
- Response to inducer: TF (transcription factor) (TtgA1 (TtgR-VP16)): D

Compound: O=C(O)CCCC[C@@H]1SC[C@@H]2NC(=O)N[C@@H]21 [Biotin]
- Response to inducer: T (transgene transcription) (BIT (BirA-VP16)): A
- Response to inducer: TF (transcription factor) (BIT (BirA-VP16)): B

Compound: CN1CCCC1c1cccnc1 (centres unmarked) [nicotine]
- reporter (mCherry) expression: percent of mCherry positive cells and mean fluorescent intensity [1]: induced concentration-dependent reporter expression

Compound: CC(C)c1ccc(C(=O)O)cc1 [Cumate]
- Response to inducer: T (transgene transcription) (rcTA (rCymR-VP16)): A
- Response to inducer: TF (transcription factor) (rcTA (rCymR-VP16)): B
- Response to inducer: T (transgene transcription) (cTA (CymR-VP16)): DA
- Response to inducer: TF (transcription factor) (cTA (CymR-VP16)): D
- Response to inducer: T (transgene transcription) (CymR): DR
- Response to inducer: TF (transcription factor) (CymR): D

Compound: COc1cc(C(=O)O)ccc1O [Vanillic acid]
- Response to inducer: T (transgene transcription) (VanA4 (VanR-KRAB)): DR
- Response to inducer: TF (transcription factor) (VanA4 (VanR-KRAB)): D
- Response to inducer: T (transgene transcription) (VanA1 (VanR-VP16)): DA
- Response to inducer: TF (transcription factor) (VanA1 (VanR-VP16)): D

Compound: O=c1[nH]c(=O)c2[nH]c(=O)[nH]c2[nH]1 [Uric acid]
- Response to inducer: T (transgene transcription) (mUTS (KRAB-HucR)): DR
- Response to inducer: TF (transcription factor) (mUTS (KRAB-HucR)): D

Compound: CC(C)CCCC[C@@H](O)[C@@H]1C(=O)OC[C@H]1CO [SCB1]
- Response to inducer: T (transgene transcription) (SCS (ScbR-KRAB)): DR
- Response to inducer: TF (transcription factor) (SCS (ScbR-KRAB)): D
- Response to inducer: T (transgene transcription) (SCAPIT3): DA
- Response to inducer: TF (transcription factor) (SCAPIT3): D
- Response to inducer: T (transgene transcription) (SCAE-KRAB): DA
- Response to inducer: TF (transcription factor) (SCAE-KRAB): D
- Response to inducer: T (transgene transcription) (SCA (ScbR-VP16)): DA
- Response to inducer: TF (transcription factor) (SCA (ScbR-VP16)): D

Compound: Pristinamycin I
- Response to inducer: T (transgene transcription) (PIT (PIP-VP16)): DA
- Response to inducer: TF (transcription factor) (PIT (PIP-VP16)): D
- Response to inducer: T (transgene transcription) (tTAPIT3E-KRAB): DR
- Response to inducer: TF (transcription factor) (tTAPIT3E-KRAB): D
- Response to inducer: T (transgene transcription) (SCAPIT3): DR
- Response to inducer: TF (transcription factor) (SCAPIT3): D
- Response to inducer: T (transgene transcription) (PIT3 (PIP-KRAB)): DR
- Response to inducer: TF (transcription factor) (PIT3 (PIP-KRAB)): D

Compound: N=C(N)NCCC[C@H](N)C(=O)O [Construct 1-Arginine, 1-Arginine]
- Response to inducer: T (transgene transcription) (ArgR-VP16): A
- Response to inducer: TF (transcription factor) (ArgR-VP16): B

Compound: NC(=O)C1=CN([C@@H]2O[C@H](COP(=O)(O)OP(=O)(O)OC[C@H]3O[C@@H](n4cnc5c(N)ncnc54)[C@H](O)[C@@H]3O)[C@@H](O)[C@H]2O)C=CC1 [NADH]
- Response to inducer: T (transgene transcription) (REDOX (REX-VP16)): DA
- Response to inducer: TF (transcription factor) (REDOX (REX-VP16)): D

Compound: CCCCCC(=O)CC(=O)N[C@H]1CCOC1=O [Construct 3-Oxo-C8-HSL, 3-Oxo-C8-HSL]
- Response to inducer: T (transgene transcription) (p65-TraR): A
- Response to inducer: TF (transcription factor) (p65-TraR): B
